Activity calls are given as the source filed them. The rule behind the calls is not given here.
Molecular target: Influenza A virus M2 proton channel (A/TW/4845/1999 H1N1)
Experiment: M2 proton channel binding, NMR based, influenza A virus H1N1 strain (AID 1549)
Details: NMR binding screen, M2 protein

SMILES	Kd
Cn1c(SCC(N)=O)nc2c1c(=O)[nH]c(=O)n2C	> 4 mM (inactive)
O=C1CC(C(=O)O)c2ccccc21 (configuration not stated)	> 4 mM (inactive)
O=C(CSc1ncnc2ccccc12)NCCCO	> 4 mM (inactive)
CC(=O)N1N=C(N)SC1c1cccnc1 (configuration not stated)	> 4 mM (inactive)
c1ccc(SCc2nc(-c3ccccn3)no2)cc1	> 4 mM (inactive)
CC(=O)CC1(O)C(=O)Nc2ccc(Br)cc21 (configuration not stated)	> 4 mM (inactive)
CC(C)(C)NC(=O)N1CCC(C(=O)O)CC1	> 4 mM (inactive)
Cc1cccc(C)c1NC(=O)CN1CCOCC1	> 4 mM (inactive)
Cn1ncc2c(=O)n(CC(=O)c3ccccc3)cnc21	> 4 mM (inactive)
CSc1nc(O)cc(=O)[nH]1	> 4 mM (inactive)
CN(C)c1ccc2c(=O)[nH][nH]c(=O)c2c1	> 4 mM (inactive)
COC(=O)Cc1cc(=O)n(-c2nc3ccccc3s2)[nH]1	> 4 mM (inactive)
O=C(Nc1ccon1)c1csc2ccccc12	> 4 mM (inactive)
COc1ccc2c(=O)c(CC(=O)O)coc2c1	> 4 mM (inactive)
CN1CCc2c(sc(N)c2C#N)C1	> 4 mM (inactive)
CC(=O)Nc1cccs1	> 4 mM (inactive)
Cc1cc(OC(=O)c2ccco2)c([N+](=O)[O-])c(=O)[nH]1	> 4 mM (inactive)
NC(=O)C1CCN(CN2C(=O)c3ccccc3C2=O)CC1	> 4 mM (inactive)
Cc1onc(-c2ccccc2)c1CN	> 4 mM (inactive)
COc1ccc(-c2coc3c(OC)c(OC)cc(OC)c3c2=O)cc1	> 4 mM (inactive)
NC(=O)CSc1ncnc2ccccc12	> 4 mM (inactive)
Oc1cc2c(cc1O)C1c3ccc(O)c(O)c3OCC1(O)C2 (configuration not stated)	> 4 mM (inactive)
CS(=O)(=O)N1CCN(C(=O)c2ccccc2)CC1	> 4 mM (inactive)

SMILES	Kd
NC(=O)C1CCN(c2nccc(C(F)(F)F)n2)CC1	> 4 mM (inactive)
O=C(O)c1ccc(-c2cnco2)cc1	> 4 mM (inactive)
Cc1nnsc1C(=O)O	> 4 mM (inactive)
CC(=O)N1CCc2cc(NC(=O)c3ccc(C)cc3)ccc21	> 4 mM (inactive)
CCn1cnc(C(=O)NC)c1C(=O)NC	> 4 mM (inactive)
CC12OC(=O)CC3C(C)(C)[C@H](O)C=C[C@]3(C)C1CC[C@]1(C)C2=CC(=O)O[C@H]1c1ccoc1 (some centres not stated)	> 4 mM (inactive)
C[n+]1cccc(C(=O)[O-])c1	> 4 mM (inactive)
O=C(Nc1ccccn1)c1cc(-n2cnnc2)ccc1Cl	> 4 mM (inactive)
CC12CCC(O)CC1CCC1C2[C@H](O)CC2(C)C(C3=CC(=O)OC3)CCC12O (some centres not stated)	> 4 mM (inactive)
Clc1ccc2c(N3CCNCC3)ccnc2c1	> 4 mM (inactive)
O=C1C2C3C=CC(C3)C2C(=O)N1CCCO (configuration not stated)	> 4 mM (inactive)
Oc1ccccc1N=Cc1cccnc1	> 4 mM (inactive)
CC(C)(C)CC(=O)NC1=NCCS1	> 4 mM (inactive)
Cn1cccc1C(=O)NS(=O)(=O)c1ccccc1Cl	> 4 mM (inactive)
Oc1cc(O)c2c(c1)O[C@H](c1ccc(O)c(O)c1)[C@H](O)C2	> 4 mM (inactive)
O=C1CC(=O)N(c2cccc(Cl)c2)N1	> 4 mM (inactive)
CCOC(=O)c1c(C)n([O-])c2ccccc2[n+]1=O	> 4 mM (inactive)
NC(=O)c1c(Cl)nsc1-c1ccccc1Cl	> 4 mM (inactive)
CC12CN(CC#N)CC(C)(CN(CC#N)C1)C2=O	> 4 mM (inactive)
CC(=O)Nc1ccc(C(=O)N2CCOCC2)cc1Cl	> 4 mM (inactive)
CC1=NN(C(N)=S)C(C)(C)C1	> 4 mM (inactive)
CC1=C(/C=C/C(C)=C/C=C/C(C)=C/C=C/C=C(C)/C=C/C=C(C)/C=C/C2=C(C)CCCC2(C)C)C(C)(C)CCC1	> 4 mM (inactive)
CC(=O)Oc1c2c(c3c(c1CC=C(C)C)O[C@]14C(=C[C@@H]5CC1C(C)(C)OC4(C/C=C(\C)C(=O)O)C5=O)C3=O)OC(C)(CCC=C(C)C)C=C2 (some centres not stated)	> 4 mM (inactive)

SMILES	Kd
Cc1onc(-c2ccccc2)c1CO	> 4 mM (inactive)
NC(Cc1c[nH]c2ccccc12)C(=O)O (configuration not stated)	> 4 mM (inactive)
Nc1c2c3c(sc2nc(=O)n1N)CCCC3	> 4 mM (inactive)
Cc1ccc(C(=O)N2CCOCC2)cc1Cl	> 4 mM (inactive)
CCSc1nnc2[nH]c(=O)cc(C)n12	> 4 mM (inactive)
O=C(O)Cc1nc(-c2ccncc2)n[nH]1	> 4 mM (inactive)
O=C(O)CCC(=O)c1cccc2ccccc12	> 4 mM (inactive)
NC(=O)c1ccccc1NC(=O)c1cccnc1	> 4 mM (inactive)
Cc1cc(=O)[nH]c(N)n1	> 4 mM (inactive)
Cc1oc(-c2ccccc2)nc1CCO	> 4 mM (inactive)
Cc1cc(C(=O)NC2=NCCS2)cs1	> 4 mM (inactive)
CC(=O)O[C@@H]1CC2C(C)(C)C=CC(=O)[C@]2(C)C2CC[C@@]3(C)[C@H](c4ccoc4)OC(=O)C4OC43[C@@]21C (some centres not stated)	> 4 mM (inactive)
O=c1[nH]cc(CN2CCOCC2)c(=O)[nH]1	> 4 mM (inactive)
Clc1ccccc1OCc1nc(-c2ccncc2)no1	> 4 mM (inactive)
CNc1nnc(Cc2csc(N)n2)s1	> 4 mM (inactive)
O=C1CNC(=O)/C1=C/c1ccc(O)cc1	> 4 mM (inactive)
COc1cc([C@@H]2c3cc4c(cc3[C@H](O)[C@H]3COC(=O)[C@@H]23)OCO4)cc(OC)c1OC	> 4 mM (inactive)
O=C1CC[C@]23/C=C/C(=O)NCCCCNCCCNC(=O)/C=C/c4ccc(c2c4)O[C@@H]3C1	> 4 mM (inactive)
Cn1c(=O)cc(N2CCCCC2)[nH]c1=O	> 4 mM (inactive)
COc1ccc(-c2cc(=O)c3ccccc3o2)cc1	> 4 mM (inactive)
OCc1cccs1	> 4 mM (inactive)
Cc1ccc(S(=O)(=O)CC(N)=O)cc1	> 4 mM (inactive)
CNC(=S)Nc1ccc2c(c1)OCO2	> 4 mM (inactive)

SMILES	Kd
COc1ccc(C2(C)NC(=O)NC2=O)cc1 (configuration not stated)	> 4 mM (inactive)
O=c1c(Cl)c(NCCO)ncn1-c1ccccc1	> 4 mM (inactive)
C/C=C(/C)C(=O)O[C@@H]1[C@H](OC(C)=O)[C@@]2(CO)C(CC1(C)C)C1=CCC3[C@@]4(C)CC[C@H](O[C@@H]5O[C@H](C(=O)O)[C@@H](O[C@@H]6O[C@H](CO)[C@@H](O)[C@H](O)[C@H]6O)[C@H](O)[C@H]5O[C@@H]5O[C@H](CO)[C@@H](O)[C@H](O)[C@H]5O)[C@](C)(CO)C4CC[C@@]3(C)[C@]1(C)C[C@H]2O (some centres not stated)	> 4 mM (inactive)
OCc1ccc(N2CCOCC2)cc1	> 4 mM (inactive)
CCCCCCCCCCCCCCC(C(=O)OC)C(O)(CC(=O)OC)C(=O)OC (configuration not stated)	> 4 mM (inactive)
Cc1ccc(C2NS(=O)(=O)N=C2N)cc1 (configuration not stated)	> 4 mM (inactive)
CC(=O)c1cc2c(s1)SCC(=O)N2	> 4 mM (inactive)
CC1(C)Cc2nc3n[nH]c(N)c3cc2CO1	> 4 mM (inactive)
Nc1ccc(OCc2ccccc2)cc1	> 4 mM (inactive)
NCc1cccc(-n2cccc2)c1	> 4 mM (inactive)
CCN1CCC(=NO)CC1	> 4 mM (inactive)
CCc1noc(C)c1C(=O)N1CCCC1	> 4 mM (inactive)
Cc1cc(C)n(CC(=O)O)n1	> 4 mM (inactive)
O=S1(=O)NC(=NCc2ccccc2)c2ccccc21	> 4 mM (inactive)
CC(=O)c1cc(C)ccc1O	> 4 mM (inactive)
OCC(O)C(O)C(O)CO (configuration not stated)	> 4 mM (inactive)
CC(=O)Nc1cccc(-c2nnc3n2CC(C)S3)c1 (configuration not stated)	> 4 mM (inactive)
NC(=O)C1CCN(S(=O)(=O)c2ccccc2)CC1	> 4 mM (inactive)
Cn1cc(Cl)c(C(=O)NC2CCCCCC2)n1	> 4 mM (inactive)
C[C@@H]1O[C@@H](O[C@H]2[C@H](Oc3cc(O)c4c(=O)cc(-c5ccc(O)cc5)oc4c3)O[C@H](CO)[C@@H](O)[C@@H]2O)[C@H](O)[C@H](O)[C@H]1O	> 4 mM (inactive)
Cc1c(C)n2c(SCC(N)=O)nnc2[nH]c1=O	> 4 mM (inactive)
Cc1sc2nc(C)n(NC(N)=O)c(=O)c2c1C	> 4 mM (inactive)
CCOC(=O)c1cc(C)n(-n2cnnc2)c1C	> 4 mM (inactive)

SMILES	Kd
COc1c2ccoc2nc2c(OC)c(OCC(O)C(C)(C)O)ccc12 (configuration not stated)	> 4 mM (inactive)
OCC1CCCN2CCCCC12 (configuration not stated)	> 4 mM (inactive)
CC1=C2C(=CO[C@H](C)[C@H]2C)C(=O)C(C(=O)O)=C1O	> 4 mM (inactive)
CC(=O)O[C@H]1CC[C@@]2(C)C(CC[C@]3(C)C2CC=C2C4CC(C)(C)CC[C@]4(C)CC[C@]23C)C1(C)C (some centres not stated)	> 4 mM (inactive)
O=S(=O)(Nc1cccc2cn[nH]c12)c1ccc(F)cc1	> 4 mM (inactive)
COc1cc2c3cc1Oc1cc(ccc1O)C[C@@H]1c4c(cc(OC)c(O)c4Oc4ccc(cc4)C[C@@H]3N(C)CC2)CC[N+]1(C)C	> 4 mM (inactive)
COC(=O)[C@]1(C)CCC[C@]2(C)c3ccc(C(C)C)cc3C(=O)CC12 (some centres not stated)	> 4 mM (inactive)
Cc1cccc(N2CCN(C(=O)c3ccncc3)CC2)c1C	> 4 mM (inactive)
CCS(=O)(=O)N1CCN(c2ccccc2F)CC1	> 4 mM (inactive)
CC(NC(=O)c1ccco1)c1ccc2c(c1)OCCO2 (configuration not stated)	> 4 mM (inactive)
CNC(=O)C(=O)Nc1ccc(F)cc1	> 4 mM (inactive)
O=C(Nc1ccccc1)Nc1ccccc1	> 4 mM (inactive)
S=c1[nH]ncn1-c1ccccc1	> 4 mM (inactive)
O=C(NCc1ccncc1)c1cccc(F)c1	> 4 mM (inactive)
CC1(C)CC2C1CCC1(C)OC1CCC2(C)O (configuration not stated)	> 4 mM (inactive)
CC(=O)OC/C=C(\C)CC/C=C(\C)CC/C=C(\C)CC/C=C(\C)CC/C=C(\C)CC/C=C(\C)CC/C=C(\C)CC/C=C(\C)CCC=C(C)C	> 4 mM (inactive)
O=C(COc1ccccc1Cl)N1CCCC1	> 4 mM (inactive)
O=C(CSc1ncn[nH]1)c1ccc2c(c1)OCO2	> 4 mM (inactive)
Cc1ccc(C(O)c2nccn2C)o1 (configuration not stated)	> 4 mM (inactive)
COC(=O)[C@]1(C)CC[C@]2(C)CC[C@]3(C)C4=CCc5c(cc(O)c(O)c5C)[C@]4(C)CC[C@@]3(C)C2C1 (some centres not stated)	> 4 mM (inactive)
